The source of these data is US20250382344A1, “Soluble GLP1/GIP/NPY2 Receptor Triple Agonists” (Boehringer Ingelheim International GmH, priority 2024, published 2025).

Like-named read-outs stand apart in the source and are kept apart here.

Data set [1] can be described thus: Solubility in 0.1 M phosphate buffer at pH 7. It counts as physicochemical. The settings on record: 0.1 M phosphate buffer at pH 7, 10 mg/mL final peptide concentration, shaking 2 hours at room temperature, peptides as TFA-salts; measured sample pH 6.5-7.0.
Data set [2] has as its target T1, hGLP1R (Homo sapiens, UniProt P43220).
T1 construct: expressed in transfected cells; host or cells: HEK-293 CRE-luciferase reporter cells
The data set is described as follows: hGLP1R CreLuc assay in 0.5% and 100% plasma (HEK-293 CRE-luciferase reporter cells). As to conditions: HEK-293 reporter cells. Format: cell-based.

The target of data set [3] is T2, hGIPR (Homo sapiens, UniProt P48546).
T2 construct: expressed in transfected cells; host or cells: CHO CRE-luciferase reporter cells
T2 sequence (P48546 22-466): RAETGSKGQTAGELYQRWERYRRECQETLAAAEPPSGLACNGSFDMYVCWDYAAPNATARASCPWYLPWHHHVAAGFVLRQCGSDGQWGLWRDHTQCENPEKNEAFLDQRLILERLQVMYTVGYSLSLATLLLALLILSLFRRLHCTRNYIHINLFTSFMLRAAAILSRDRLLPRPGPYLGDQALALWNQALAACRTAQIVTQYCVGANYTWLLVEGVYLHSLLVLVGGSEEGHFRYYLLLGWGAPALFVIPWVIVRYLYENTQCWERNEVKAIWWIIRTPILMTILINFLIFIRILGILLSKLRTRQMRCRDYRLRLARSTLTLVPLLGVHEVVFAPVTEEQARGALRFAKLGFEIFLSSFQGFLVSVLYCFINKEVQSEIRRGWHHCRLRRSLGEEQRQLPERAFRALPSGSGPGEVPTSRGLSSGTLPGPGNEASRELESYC
Kind of data set: hGIPR CreLuc assay in 0.5% and 100% plasma (CHO CRE-luciferase reporter cells). Format: cell-based.

[4] abbreviates: 0.5% human plasma, read-out: hGLP1R 0.5% hP.
Where [5] appears, read: 100% human plasma, read-out: hGLP1R 100% hP.
The mark [6] stands for this setting: 0.5% human plasma, read-out: hGIPR 0.5% hP.

T1 sequence (P43220 24-463): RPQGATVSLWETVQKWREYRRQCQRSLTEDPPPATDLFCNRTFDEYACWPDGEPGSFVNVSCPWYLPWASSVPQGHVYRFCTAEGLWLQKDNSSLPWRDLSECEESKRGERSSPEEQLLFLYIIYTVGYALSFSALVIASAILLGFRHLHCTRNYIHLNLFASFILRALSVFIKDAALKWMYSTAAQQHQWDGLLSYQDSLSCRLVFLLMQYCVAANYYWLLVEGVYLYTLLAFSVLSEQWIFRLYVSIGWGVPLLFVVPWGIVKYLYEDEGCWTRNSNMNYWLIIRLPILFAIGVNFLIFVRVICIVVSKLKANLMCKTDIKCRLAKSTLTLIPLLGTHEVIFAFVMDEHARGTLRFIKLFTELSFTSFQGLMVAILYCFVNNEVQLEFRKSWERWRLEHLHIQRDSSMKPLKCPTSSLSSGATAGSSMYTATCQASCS

The solubility is the dissolved amount per volume that the medium holds. `CC[C@H](C)[C@H](NC(=O)[C@H](CC(C)C)NC(=O)[C@H](Cc1c[nH]cn1)NC(=O)[C@H](CCCNC(=N)N)NC(=O)[C@@H](NC(=O)[C@H](Cc1ccccc1)NC(=O)[C@H](C)NC(=O)C(C)(C)NC(=O)[C@H](CCC(N)=O)NC(=O)[C@H](C)NC(=O)[C@H](CCC(N)=O)NC(=O)[C@H](CCC(N)=O)NC(=O)[C@H](CCC(=O)O)NC(=O)[C@H](CC(C)C)NC(=O)C(C)(C)NC(=O)[C@@H](NC(=O)[C@H](CO)NC(=O)[C@H](Cc1ccc(O)cc1)NC(=O)[C@H](CC(=O)O)NC(=O)[C@H](CO)NC(=O)[C@@H](NC(=O)[C@H](Cc1ccccc1)NC(=O)[C@@H](NC(=O)CNC(=O)[C@H](CCC(=O)O)NC(=O)C(C)(C)NC(=O)[C@@H](N)Cc1ccc(O)cc1)[C@@H](C)O)[C@@H](C)O)[C@@H](C)CC)C(C)C)C(=O)N[C@@H](CC(N)=O)C(=O)N[C@@H](CCCCNC(=O)CC[C@H](NC(=O)CC[C@H](NC(=O)CC[C@H](NC(=O)CC[C@H](NC(=O)CC[C@H](NC(=O)CCCCCCCCCCCCCCCCC(=O)O)C(=O)O)C(=O)O)C(=O)O)C(=O)O)C(=O)O)C(=O)NC(C)(C)C(=O)N[C@H](C(=O)N[C@@H](CCCNC(=N)N)C(=O)N[C@@H](CCC(N)=O)C(=O)N[C@@H](CCCNC(=N)N)C(=O)N[C@@H](Cc1ccc(O)cc1)C(N)=O)[C@@H](C)O` [Compound 42, Y-Aib-E-G-T-F-T-S-D-Y-S-I-Aib-L-E-Q-Q-A-Q-Aib-A-F-V-R-H-L-I-N-K(1,3)-Aib-T-R-Q-R-Y-NH2.C18DA-gGlu-gGlu-gGlu-gGlu-gGlu(1,2)]: the solubility at 2 h in data set [1] turned out to be 4.3 mg/mL. Moreover, the EC50 in data set [2] (setting [4]) stood at 0.9 nM; in data set [2] (setting [5]), 14.5 nM; in data set [3] (setting [6]) it was 0.2 nM.
Consider `CC[C@H](C)[C@H](NC(=O)[C@H](CC(C)C)NC(=O)[C@H](Cc1c[nH]cn1)NC(=O)[C@H](CCCNC(=N)N)NC(=O)[C@@H](NC(=O)[C@H](Cc1ccccc1)NC(=O)[C@H](C)NC(=O)C(C)(C)NC(=O)[C@H](CCC(N)=O)NC(=O)[C@H](C)NC(=O)[C@H](CCC(N)=O)NC(=O)[C@H](CCCCN)NC(=O)[C@H](CCC(=O)O)NC(=O)[C@H](CC(C)C)NC(=O)C(C)(C)NC(=O)[C@@H](NC(=O)[C@H](CO)NC(=O)[C@H](Cc1ccc(O)cc1)NC(=O)[C@H](CC(=O)O)NC(=O)[C@H](CO)NC(=O)[C@@H](NC(=O)[C@H](Cc1ccccc1)NC(=O)[C@@H](NC(=O)CNC(=O)[C@H](CCC(=O)O)NC(=O)C(C)(C)NC(=O)[C@@H](N)Cc1ccc(O)cc1)[C@@H](C)O)[C@@H](C)O)[C@@H](C)CC)C(C)C)C(=O)N[C@@H](CC(N)=O)C(=O)N[C@@H](CCCCNC(=O)[C@@H](N)CCCCNC(=O)CC[C@H](NC(=O)CC[C@H](NC(=O)CC[C@H](NC(=O)CC[C@H](NC(=O)CC[C@H](NC(=O)CC[C@H](NC(=O)CCCCCCCCCCCCCCCCC(=O)O)C(=O)O)C(=O)O)C(=O)O)C(=O)O)C(=O)O)C(=O)O)C(=O)NC(C)(C)C(=O)N[C@H](C(=O)N[C@@H](CCCNC(=N)N)C(=O)N[C@@H](CCC(N)=O)C(=O)N(C)[C@@H](CCCNC(=N)N)C(=O)N[C@@H](Cc1ccc(O)cc1)C(N)=O)[C@@H](C)O` [Compound 43, Y-Aib-E-G-T-F-T-S-D-Y-S-I-Aib-L-E-K-Q-A-Q-Aib-A-F-V-R-H-L-I-N-K(1,3)-Aib-T-R-Q-NMeR-Y-NH2.C18DA-gGlu-gGlu-gGlu-gGlu-gGlu-gGlu-eLys(1,2)], for which the solubility at 2 h in data set [1] turned out to be 4.3 mg/mL. For the same molecule, the EC50 was 0.6 nM in data set [2] (setting [4]); 3 nM in data set [2] (setting [5]); 0.1 nM in data set [3] (setting [6]); 2.8 nM in data set [3] (100% human plasma, read-out: hGIPR 100% hP).
As to `CC[C@H](C)[C@H](NC(=O)[C@H](CC(C)C)NC(=O)[C@H](Cc1c[nH]cn1)NC(=O)[C@H](CCCNC(=N)N)NC(=O)[C@@H](NC(=O)[C@H](Cc1ccccc1)NC(=O)[C@H](C)NC(=O)C(C)(C)NC(=O)[C@H](CCC(N)=O)NC(=O)[C@H](C)NC(=O)[C@H](CCC(N)=O)NC(=O)[C@H](CCCCN)NC(=O)[C@H](CCC(=O)O)NC(=O)[C@H](CC(C)C)NC(=O)C(C)(C)NC(=O)[C@@H](NC(=O)[C@H](CO)NC(=O)[C@H](Cc1ccc(O)cc1)NC(=O)[C@H](CC(=O)O)NC(=O)[C@H](CO)NC(=O)[C@@H](NC(=O)[C@H](Cc1ccccc1)NC(=O)[C@@H](NC(=O)CNC(=O)[C@H](CCC(=O)O)NC(=O)C(C)(C)NC(=O)[C@@H](N)Cc1ccc(O)cc1)[C@@H](C)O)[C@@H](C)O)[C@@H](C)CC)C(C)C)C(=O)N[C@@H](CC(N)=O)C(=O)N[C@@H](CCCCNC(=O)CCCCCNC(=O)CCCCCNC(=O)CC[C@H](NC(=O)CC[C@H](NC(=O)CC[C@H](NC(=O)CC[C@H](NC(=O)CC[C@H](NC(=O)CCCCCCCCCCCCCCCCC(=O)O)C(=O)O)C(=O)O)C(=O)O)C(=O)O)C(=O)O)C(=O)NC(C)(C)C(=O)N[C@H](C(=O)N[C@@H](CCCNC(=N)N)C(=O)N[C@@H](CCC(N)=O)C(=O)N[C@@H](CCCNC(=N)N)C(=O)N[C@@H](Cc1ccc(O)cc1)C(N)=O)[C@@H](C)O` [Compound 44, Y-Aib-E-G-T-F-T-S-D-Y-S-I-Aib-L-E-K-Q-A-Q-Aib-A-F-V-R-H-L-I-N-K(1,3)-Aib-T-R-Q-R-Y-NH2.C18DA-gGlu-gGlu-gGlu-gGlu-gGlu-AHX-AHX(1,2)], the solubility at 2 h in data set [1] came to 9.8 mg/mL. For the same molecule, the EC50 in data set [2] (setting [4]) was determined as 0.2 nM; in data set [3] (setting [6]), 0.1 nM.
Turning to `CC[C@H](C)[C@H](NC(=O)[C@H](CC(C)C)NC(=O)[C@H](Cc1c[nH]cn1)NC(=O)[C@H](CCCNC(=N)N)NC(=O)[C@@H](NC(=O)[C@H](Cc1ccccc1)NC(=O)[C@H](C)NC(=O)C(C)(C)NC(=O)[C@H](CCC(N)=O)NC(=O)[C@H](C)NC(=O)[C@H](CCC(N)=O)NC(=O)[C@H](CCC(=O)O)NC(=O)[C@H](CCC(=O)O)NC(=O)[C@H](CC(C)C)NC(=O)C(C)(C)NC(=O)[C@@H](NC(=O)[C@H](CO)NC(=O)[C@H](Cc1ccc(O)cc1)NC(=O)[C@H](CC(=O)O)NC(=O)[C@H](CO)NC(=O)[C@@H](NC(=O)[C@H](Cc1ccccc1)NC(=O)[C@@H](NC(=O)CNC(=O)[C@H](CCC(=O)O)NC(=O)C(C)(C)NC(=O)[C@@H](N)Cc1ccc(O)cc1)[C@@H](C)O)[C@@H](C)O)[C@@H](C)CC)C(C)C)C(=O)N[C@@H](CC(N)=O)C(=O)N[C@@H](CCCCNC(=O)[C@@H](N)CCCCNC(=O)CC[C@H](NC(=O)CC[C@H](NC(=O)CC[C@H](NC(=O)CC[C@H](NC(=O)CC[C@H](NC(=O)CCCCCCCCCCCCCCCCC(=O)O)C(=O)O)C(=O)O)C(=O)O)C(=O)O)C(=O)O)C(=O)NC(C)(C)C(=O)N[C@H](C(=O)N[C@@H](CCCNC(=N)N)C(=O)N[C@@H](CCC(N)=O)C(=O)N[C@@H](CCCNC(=N)N)C(=O)N[C@@H](Cc1ccc(O)cc1)C(N)=O)[C@@H](C)O` [Compound 48, Y-Aib-E-G-T-F-T-S-D-Y-S-I-Aib-L-E-E-Q-A-Q-Aib-A-F-V-R-H-L-I-N-K(1,3)-Aib-T-R-Q-R-Y-NH2.C18DA-gGlu-gGlu-gGlu-gGlu-gGlu-eLys(1,2)], the solubility at 2 h in data set [1] came to 7.7 mg/mL. Further, the EC50 in data set [2] (setting [4]) was found to be 0.5 nM; in data set [3] (setting [6]) it was 0.1 nM.
